According to US20150126464A1, “THERAPEUTIC DRUG AND THERAPEUTIC METHOD FOR NEUROLOGICAL DISEASES INCLUDING ALZHEIMER'S DISEASE ASSOCIATED WITH 1,25D3-MARRS” (priority 2013, published 2015):

Key:
Assay type in all cases: in vivo, mouse
5XFAD mice [1] = assay: Novel object recognition test in 5XFAD mice (Alzheimer's disease model); settings: i.p. once a day for 20 days, diosgenin 10 μmol/kg, memantine hydrochloride 200 μmol/kg/day, 30 min training-test interval
Description: Transgenic mice (5XFAD) as an animal model of AD were obtained from the Jackson Laboratory (Bar Harbor, Me., USA). The 5XFAD mice overexpress human APP695 cDNA having Swedish mutation (K670N and M671L), Florida mutation (I716V) and London mutation (V717I) and human PS1 cDNA (M146L and L286V) under the transcriptional control of the neuron-specific mouse Thy-1 promoter (Oakley, H. et al., J Neurosci, 26, 10129-10140, 2006). They were maintained by crossing hemizygous transgenic mice with B6/SJL F1 breeders.
To investigate the effect of diosgenin on 5XFAD, hemizygous 5XFAD mice (female, 6 to 8 months old) and non-transgenic littermate wild-type mice (female, 6 to 8 months old) were used. These mice were obtained by crossing hemizygous 5XFAD mice and B6/SJL F1 mice. All mice were housed with free access to food and water and were kept in a controlled environment (22±2° C., 50±5% humidity, 12-h light/dark cycle starting at 7:00 am).
Diosgenin was dissolved in dimethyl sulfoxide (DMSO) at 10 times the final concentration to give a stock solution. The stock solution was diluted in physiological saline to the final concentration immediately before treatment. The diosgenin solution was intraperitoneally administered to 5XFAD mice once a day (10 μmol/kg=4.14 mg/kg) for 20 days. On the last day of administration (Day 20), each mouse was housed in a separate open-field box made of polyvinyl chloride (33 cm×[…]; height: 26.5 cm) and habituated to the environment for 10 min. […]
For each mouse of Example 1, Comparative Examples 1 and 2, and Reference Example 1, the path during the 10-minute habituation was tracked using a digital camera system. The distance each mouse traveled during the 10 minutes was analyzed as locomotion activity with EthoVision 3.0 (Noldus, Wageningen, The Netherlands). […] In the present invention, the ratio (%) of the exploration time for the novel object to the total exploration time was calculated as an exploration preferential index. […]

5XFAD mice [2] = assay: Immunohistochemistry of brain slices of 5XFAD mice (amyloid plaques, PHF-tau, abnormal axons, presynapses); settings: vs vehicle-treated 5XFAD
Experimental: One day after the novel object recognition test, the mice were anesthetized and transcardially perfused with cold physiological saline. The brains were carefully removed from the skull, immediately immersed in 10 to 30% sucrose-PBS and stored at -80° C. The brains were cut in 20-μm successive coronal slices every 100 μm in the parietal area (bregma 1.4-2 mm) sections using a cryostat (C[…], Leica, Heidelberg, Germany). The slices were fixed with 4% paraformaldehyde and stained with a polyclonal antibody against Aβ (1-40/42) (1:300) (Chemicon, Temecula, Calif., USA), a monoclonal antibody against pNF-H (1:500) (Covance, Emeryville, Calif., USA), a monoclonal antibody against synaptophysin (1:500) (Sigma-Aldrich), and a monoclonal antibody against PHF-tau (Thermo Scientific, Rockford, Ill., USA) at 4° C. for 20 hours. […] Three successive brain slices of the frontal cortex and five successive slices of the hippocampus were captured from a mouse for quantification. Extracellular amyloid plaques were determined by the size (greater than 50 μm in width), and the area of amyloid plaques was measured using the image analyzing software ImageJ. The area of the pNF-H-positive abnormal bulb-like axons was measured using ImageJ for every amyloid plaque in the fluorescent images (324 μm×430 μm). The areas of the synaptophysin-positive presynaptic boutons in every amyloid plaque were measured in fluorescent images (324 μm×430 μm) using Image J. The areas of PHF-tau in every amyloid plaque and outer amyloid plaques were measured in fluorescent images (324 μm×430 μm) using ImageJ.

normal mice [3] = assay: Measurement of spontaneous motor activity; settings: normal ddY mice, diosgenin 10 μmol/kg/day i.p., vs vehicle
Experimental: (§1) Diosgenin (Wako Pure Chemical Industries, Ltd., Osaka, Japan) was dissolved in ethanol at 10 times the final concentration to give a stock solution, and the stock solution was diluted in a 5% aqueous solution of glucose to the final concentration. The diosgenin solution was intraperitoneally administered to normal mice (ddY mice, male, 6 weeks old) once a day (10 μmol/kg/day) for 5 or 6 days. One hour after the last administration, each mouse was housed in a separate open-field box made of polyvinyl chloride (33 cm×28 cm; height: 26.5 cm), habituated to the environment for 10 minutes, and used in the test.
The spontaneous motor activity was evaluated based on the distance each mouse traveled in an open field during 10 minutes.

normal mice [4] = assay: Location recognition test in normal mice; settings: diosgenin i.p. 7 days, 48 hours training-test interval
Experimental: as §1
Intraperitoneal administration to the mice of Example 2 and Comparative Example 3 was performed for 7 days. One hour after the last administration, a location recognition test was performed to evaluate the spatial recognition memory. Testing was carried out in a dimly illuminated room (100 lux). The test was performed as described in Tohda, C. et al., Br J Pharmacol. 157, 1427-1440, 2009, written by the inventor and others, except that the time interval between a training session and a test session was 48 hours. As a locomotion index, the path of each mouse was tracked using a digital camera system. The distance each mouse traveled during the 10 minutes was analyzed as locomotion activity with EthoVision 3.0 (Noldus, Wageningen, The Netherlands).

[5] = diosgenin 10 μmol/kg, memantine hydrochloride 200 μmol/kg/day i.p. 20 days

Structure (SMILES): C[C@@H]1CC[C@@]2(OC1)O[C@H]1C[C@H]3[C@@H]4CC=C5C[C@@H](O)CC[C@]5(C)[C@H]4CC[C@]3(C)[C@H]1[C@@H]2C [diosgenin]
- novel object preferential index (exploration preferential index), test session (5XFAD mice [1]): higher than 50%
- area of abnormal presynapses (swollen presynapse area) per amyloid plaque in the cerebral cortex (5XFAD mice [2]; diosgenin 10 μmol/kg i.p. 20 days): significantly reduced
- area of abnormal axons (swollen axon area) per amyloid plaque in the cerebral cortex (5XFAD mice [2]; [5]): significantly reduced
- area of abnormal axons (swollen axon area) per amyloid plaque in the hippocampus (5XFAD mice [2]; [5]): significantly reduced
- total area of PHF-tau in the cerebral cortex (5XFAD mice [2]; [5]): significantly reduced
- total area of PHF-tau in the hippocampus (5XFAD mice [2]; [5]): significantly reduced
- total area of amyloid plaques in the cerebral cortex (5XFAD mice [2]; [5]): significantly reduced
- total area of amyloid plaques in the hippocampus (5XFAD mice [2]; [5]): significantly reduced
- spontaneous motor activity (distance traveled in an open field during 10 minutes) (normal mice [3]): no significant difference
- frequency of exploratory behavior for the object moved to a new location (normal mice [4]): > 50%
